Laboratory results taken from patent US10994015B2, “EGFR proteolysis targeting chimeric molecules and associated methods of use” (Arvinas Operations, Inc., priority 2016, dated 2021).

Legend:
GTL16 cells = test: Cell-proliferation assay in GTL16 cells; format: cell-based; conditions: Homo sapiens, GTL 16
Procedure: Cell Proliferation Assays
Following PROTAC or diastereomer treatment of cells as indicated, culture medium was supplemented with 330 μg/ml MTS (Promega Corp., Madison, Wis.) and 25 μM phenazine methosulfate (Sigma, St. Louis, Mo.) and incubated at 37° C. Mitochondrial reduction of MTS to the formazan derivative was monitored by measuring the medium's absorbance at 490 nm using a Wallac Victor^2 platereader (Perkin-Elmer Life Sciences, Waltham, Mass.). Data analysis and statistics performed using Prism v7.0 software (GraphPad Software).

AKT phosphorylation = test: HGF-driven AKT phosphorylation in MDA-MB-231 cells (immunoblot); format: cell-based; conditions: HGF pulse
Procedure: (§1) Cells were treated with the indicated concentrations of PROTAC or corresponding inhibiting diastereomer for the specified time and then harvested in lysis buffer (25 mM Tris.HCl pH 7.5 with 1% NP-40 and 0.25% deoxycholate, supplemented with 10 mM sodium pyrophosphate, 20 mM ß-glycerophosphate, 10 mM sodium fluoride, 1 mM sodium orthovanadate, 0.1 mM phenylarsine oxide, 10 μg/ml leupeptin, 10 μg/ml pepstatin A, 30 μg/ml bestatin, 0.3 trypsin inhibitor units/ml aprotinin and 1 mM PMSF). Following centrifugation at 16,000×g for 10 min at 4° C. to pellet insoluble materials, the protein concentrations of the supernatants were quantitated by BCA assay (Thermo Fisher Scientific). Protein samples were resolved by 8% SDS-PAGE, electrophoretically transferred to nitrocellulose and probed with the antibodies listed above. Immunoblots were developed using enhanced chemiluminescence and visualized using a Bio-Rad Chemi-Doc MP Imaging System and quantitated with Image Lab v.5.2.1 software (Bio-Rad Laboratories).

HER2 InsYVMA = HER2 InsYVMA (Homo sapiens (Human), UniProt P04626, INS775YVMA); test: TR-FRET assay for ERBB kinases; format: biochemical; conditions: geometric mean if measured more than once
Procedure: TR-FRET Assay for ERBB Kinases
All compounds and PROTACs were serially diluted in three-fold increments using 100% DMSO, followed by an intermediate 10-fold dilution using Buffer A (50 mM HEPES, pH 7.5, 50 mM NaCl, 10 mM MgCl2, 1 mM DTT, and 0.1% Pluronic F-68). Two microliters of serially diluted compound or PROTAC were then transferred to black 384-well Proxiplates (PerkinElmer, #6008260) using an Integra Viaflo96. Next, 10 uL of protein kinase in Buffer A was added to each well of the assay plate and pre-incubated with compound for 10 minutes. Kinase reactions were then initiated by addition of 5 uL substrate mix containing 3 mM ATP and 30 uM fluorescein-labeled Poly-GluTyr (Thermo Fisher, #PV3610) in Buffer A and allowed to proceed for 10 minutes at room temperature. Reactions were quenched by addition of a 5 uL mixture containing 5 nM LanthaScreen® Tb-pY20 Antibody (Thermo Fisher, #PV3552) and 40 mM EDTA in Buffer A. Assay plates were then read using a Synergy2 (Biotek Instruments, Winooski, Vt.) via excitation thru a 340/20 nm bandpass filter and emission collected thru 490/10 nm (donor) and 520/25 nm (acceptor) bandpass filters. The final kinase concentrations used for each 15 uL reaction were as follows: 0.2 nM EGFR Exon20NPG (SignalChem, #E10-132GG), 0.1 nM wild type EGFR (BPS Bioscience, #40187), 0.3 nM EGFR L858R/T790M/C797S (BPS Bioscience, #40351), 0.1 nM EGFR L858R (BPS Bioscience, #40189), 0.4 nM L858R/T790M (BPS Bioscience, #40350), InM EGFR Dell9 (SignalChem, #E10-122JG), 10 nM EGFR Dell9 T790M (SignalChem, #E10-122KG), 0.3 nM Her2 (BPS Bioscience, #40230), 15 nM Her2 InsYVMA (SignalChem, #E27-13BG).

[1] = target: EGFR L858R/T790M double mutant (H1975) (Homo sapiens (Human), UniProt P00533, L858R/T790M); test: EGFR protein degradation assay (Western blot); format: cell-based; conditions: 72 hours, 300 nM to 10 nM
In short: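 EGFR protein levels were measured by immunoblotting. Lysate protein was quantified by BCA, and 10 μg per sample was separated by SDS/PAGE at 165V for 2 hours and transferred to PVDF. Membranes were blocked in TBS-T with 5% milk for 1 hour, probed overnight at 4° C with EGFR and tubulin antibodies, then secondary antibody for 1 hour, and detected by ECL on a Chemidoc.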

EGFR L858R/T790M/C797S = EGFR L858R/T790M/C797S (Homo sapiens (Human), UniProt P00533, C797S/L858R/T790M); test: TR-FRET assay for ERBB kinases; format: biochemical; conditions: geometric mean if measured more than once
In short: (§2)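 Kinase + cmpd preinc 10 min; start with mix of 3 mM ATP / 30 uM fluorescein poly-GluTyr (mix concs); 10 min RT; stop with 5 nM Tb-pY20 Ab / 40 mM EDTA. Buffer 50 mM HEPES pH 7.5, 10 mM MgCl2.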

EGFR L858R/T790M = EGFR L858R/T790M (Homo sapiens (Human), UniProt P00533, L858R/T790M); test: TR-FRET assay for ERBB kinases; format: biochemical; conditions: geometric mean if measured more than once
In short: as §2

EGFR WT = EGFR WT (Homo sapiens (Human), UniProt P00533); test: TR-FRET assay for ERBB kinases; format: biochemical; conditions: geometric mean if measured more than once
In short: as §2

EGFR Exon20NPG = EGFR Exon20NPG (Homo sapiens (Human), UniProt P00533, INS770NPG); test: TR-FRET assay for ERBB kinases; format: biochemical; conditions: geometric mean if measured more than once
In short: (§3)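 Phosphorylation of fluorescein-labeled poly-GluTyr read as TR-FRET using Tb-pY20 antibody after EDTA stop, with 340 nm excitation. Kinase reaction ran 10 min at room temperature following 10 min compound pre-incubation; substrate mix held 3 mM ATP and 30 µM peptide before addition. Buffer was HEPES pH 7.5.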

HER2WT = HER2WT (Homo sapiens (Human), UniProt P04626); test: TR-FRET assay for ERBB kinases; format: biochemical; conditions: geometric mean if measured more than once
In short: as §3

EGFR Δ19/746/750 T790M = EGFR Δ19/746/750 T790M (Homo sapiens (Human), UniProt P00533, DEL746-750/T790M); test: TR-FRET assay for ERBB kinases; format: biochemical; conditions: geometric mean if measured more than once
In short: as §3

EGFR Δ19/746/750 = EGFR Δ19/746/750 (Homo sapiens (Human), UniProt P00533, DEL746-750); test: TR-FRET assay for ERBB kinases; format: biochemical; conditions: geometric mean if measured more than once
In short: as §3

EGFR L858R = EGFR L858R (Homo sapiens (Human), UniProt P00533, L858R); test: TR-FRET assay for ERBB kinases; format: biochemical; conditions: geometric mean if measured more than once
In short: as §3

[2] = target: EGFR-wt (MDA-MB-231 or MCF7 or A549 or OVCAR8) (Homo sapiens (Human), UniProt P00533); test: EGFR protein degradation assay (Western blot); format: cell-based; conditions: 72 hours, 300 nM to 10 nM
In short: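 EGFR degradation was assessed by Western blot. Cells expressing the appropriate EGFR were seeded in 6-well plates (300,000 cells per well) and adhered overnight. Media was removed, cells were washed with cold phosphate-buffered saline, scraped into 400 μl Cell Signaling lysis buffer plus protease inhibitor cocktail, and spun once at 10 000 rpm for 10 minutes. After BCA quantification, loading buffer and reducing agent were added. Gels loaded with 10 μg protein ran at 165V for 2 hours, and bands were visualized by chemiluminescence.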

EGFR-Δ19 (HCC827) = EGFR-Δ19 (HCC827) (Homo sapiens (Human), UniProt P00533, DEL746-750); test: EGFR protein degradation assay (Western blot); format: cell-based; conditions: 72 hours, 300 nM to 10 nM
exon-19 deletion EGFR = exon-19 deletion EGFR (Homo sapiens (Human), UniProt P00533, DEL746-750); test: Immunoblot of EGFR degradation in HCC827 cells; format: cell-based; conditions: 24 hours
Procedure: as §1

L858R EGFR = L858R EGFR (Homo sapiens (Human), UniProt P00533, L858R); test: Immunoblot of EGFR degradation in H3255 cells; format: cell-based; conditions: 24 hours
Procedure: as §1

WT EGFR = WT EGFR (Homo sapiens (Human), UniProt P00533); test: Immunoblot of EGFR degradation in OVCAR8 cells; format: cell-based; conditions: 24 hours
Procedure: as §1

HER3 = HER3 (Homo sapiens (Human), UniProt P21860); test: TR-FRET assay for ERBB kinases; format: biochemical; conditions: geometric mean if measured more than once
EGFR Exon 20 ASV (HeLa*) = EGFR Exon 20 ASV (HeLa*) (Homo sapiens (Human), UniProt P00533, DUP767-769); test: EGFR protein degradation assay (Western blot); format: cell-based; conditions: 72 hours, 300 nM to 10 nM

HER2WT, sequence (P04626 23-1255): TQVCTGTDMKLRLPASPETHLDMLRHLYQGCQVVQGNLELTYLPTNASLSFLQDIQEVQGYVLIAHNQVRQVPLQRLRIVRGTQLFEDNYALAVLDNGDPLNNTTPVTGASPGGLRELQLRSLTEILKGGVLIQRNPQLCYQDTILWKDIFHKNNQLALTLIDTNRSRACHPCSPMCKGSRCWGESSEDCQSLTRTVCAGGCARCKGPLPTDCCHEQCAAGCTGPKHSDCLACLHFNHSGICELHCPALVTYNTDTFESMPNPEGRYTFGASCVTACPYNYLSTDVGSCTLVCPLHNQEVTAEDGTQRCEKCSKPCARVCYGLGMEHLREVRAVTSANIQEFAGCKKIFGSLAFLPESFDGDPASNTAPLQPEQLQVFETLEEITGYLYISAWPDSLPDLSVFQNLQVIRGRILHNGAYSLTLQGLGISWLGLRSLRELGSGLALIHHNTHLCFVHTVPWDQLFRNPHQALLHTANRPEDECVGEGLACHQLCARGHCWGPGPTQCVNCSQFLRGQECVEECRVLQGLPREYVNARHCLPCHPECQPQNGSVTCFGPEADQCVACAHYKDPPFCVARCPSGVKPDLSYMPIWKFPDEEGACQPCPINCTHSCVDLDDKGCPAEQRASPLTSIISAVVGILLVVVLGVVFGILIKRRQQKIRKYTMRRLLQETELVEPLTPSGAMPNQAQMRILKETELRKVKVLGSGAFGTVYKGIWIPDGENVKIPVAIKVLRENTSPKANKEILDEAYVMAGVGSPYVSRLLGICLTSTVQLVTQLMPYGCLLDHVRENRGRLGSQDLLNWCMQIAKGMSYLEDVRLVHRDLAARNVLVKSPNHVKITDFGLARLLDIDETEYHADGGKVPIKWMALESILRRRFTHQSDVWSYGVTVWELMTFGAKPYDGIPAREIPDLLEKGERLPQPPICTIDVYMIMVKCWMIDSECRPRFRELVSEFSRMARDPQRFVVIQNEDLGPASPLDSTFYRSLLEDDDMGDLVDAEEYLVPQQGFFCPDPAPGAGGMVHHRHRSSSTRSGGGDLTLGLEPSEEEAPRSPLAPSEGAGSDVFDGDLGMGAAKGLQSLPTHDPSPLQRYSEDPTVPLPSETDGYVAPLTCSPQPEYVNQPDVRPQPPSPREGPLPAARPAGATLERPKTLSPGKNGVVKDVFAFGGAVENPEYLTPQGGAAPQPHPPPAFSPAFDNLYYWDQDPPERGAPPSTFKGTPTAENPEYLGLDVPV
HER2 InsYVMA, sequence (P04626 other isoform, or with tags, fused parts or gaps del 1-675/ins YVMA behind 775 limits assumed): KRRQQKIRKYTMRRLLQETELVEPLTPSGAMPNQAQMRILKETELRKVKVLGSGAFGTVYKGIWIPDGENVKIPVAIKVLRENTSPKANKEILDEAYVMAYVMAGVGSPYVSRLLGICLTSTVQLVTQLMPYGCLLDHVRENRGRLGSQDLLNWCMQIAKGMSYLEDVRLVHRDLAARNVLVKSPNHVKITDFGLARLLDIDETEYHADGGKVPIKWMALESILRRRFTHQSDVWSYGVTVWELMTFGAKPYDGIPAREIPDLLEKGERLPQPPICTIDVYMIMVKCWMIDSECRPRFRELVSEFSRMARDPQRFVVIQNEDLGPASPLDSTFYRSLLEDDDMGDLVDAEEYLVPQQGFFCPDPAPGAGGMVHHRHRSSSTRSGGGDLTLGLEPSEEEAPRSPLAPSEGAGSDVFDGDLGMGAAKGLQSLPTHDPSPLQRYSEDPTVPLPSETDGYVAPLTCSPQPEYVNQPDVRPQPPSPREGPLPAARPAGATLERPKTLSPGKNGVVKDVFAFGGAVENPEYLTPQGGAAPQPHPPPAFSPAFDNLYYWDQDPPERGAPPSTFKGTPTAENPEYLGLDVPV
HER3, sequence (P21860 20-1342, species assumed): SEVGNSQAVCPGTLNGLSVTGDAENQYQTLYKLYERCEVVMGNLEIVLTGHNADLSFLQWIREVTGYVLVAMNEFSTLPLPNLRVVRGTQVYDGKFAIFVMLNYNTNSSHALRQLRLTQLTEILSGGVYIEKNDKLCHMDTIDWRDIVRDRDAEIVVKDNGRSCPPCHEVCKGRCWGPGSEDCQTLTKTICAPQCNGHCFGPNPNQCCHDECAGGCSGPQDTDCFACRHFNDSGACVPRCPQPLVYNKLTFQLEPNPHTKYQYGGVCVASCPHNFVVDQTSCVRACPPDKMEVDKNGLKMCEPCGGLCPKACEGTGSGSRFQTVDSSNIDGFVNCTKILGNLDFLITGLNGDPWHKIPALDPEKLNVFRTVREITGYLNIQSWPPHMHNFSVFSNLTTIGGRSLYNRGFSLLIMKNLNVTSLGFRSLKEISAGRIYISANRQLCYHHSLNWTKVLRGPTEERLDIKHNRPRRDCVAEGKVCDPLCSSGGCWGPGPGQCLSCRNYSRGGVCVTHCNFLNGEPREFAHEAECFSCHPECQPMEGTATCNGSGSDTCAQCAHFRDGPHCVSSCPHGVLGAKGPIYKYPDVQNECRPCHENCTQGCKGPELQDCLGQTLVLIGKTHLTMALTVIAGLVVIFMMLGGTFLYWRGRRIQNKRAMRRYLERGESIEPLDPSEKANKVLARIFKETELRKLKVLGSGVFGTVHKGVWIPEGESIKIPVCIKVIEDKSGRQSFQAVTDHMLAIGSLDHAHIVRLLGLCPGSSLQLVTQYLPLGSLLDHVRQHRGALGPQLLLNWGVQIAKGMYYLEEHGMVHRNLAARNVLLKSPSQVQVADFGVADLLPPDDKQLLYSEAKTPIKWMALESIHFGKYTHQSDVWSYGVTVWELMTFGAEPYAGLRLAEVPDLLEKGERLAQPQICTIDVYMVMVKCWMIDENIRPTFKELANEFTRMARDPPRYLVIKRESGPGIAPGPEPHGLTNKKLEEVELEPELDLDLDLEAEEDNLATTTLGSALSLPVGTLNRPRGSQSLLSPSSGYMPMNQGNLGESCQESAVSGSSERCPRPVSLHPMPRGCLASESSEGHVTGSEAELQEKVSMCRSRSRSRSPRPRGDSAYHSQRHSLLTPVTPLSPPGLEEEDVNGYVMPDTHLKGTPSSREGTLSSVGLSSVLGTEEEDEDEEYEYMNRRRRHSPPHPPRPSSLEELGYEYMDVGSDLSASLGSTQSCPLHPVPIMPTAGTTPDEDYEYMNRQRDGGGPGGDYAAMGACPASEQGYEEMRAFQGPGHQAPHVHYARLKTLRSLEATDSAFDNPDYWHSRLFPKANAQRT

Compound	IC50 (HER2 InsYVMA)	EGFR protein remaining, EGFR L858R/T790M double mutant [1]	IC50 (EGFR L858R/T790M/C797S)	IC50 (EGFR L858R/T790M)	IC50 (EGFR WT)	IC50 (HER2WT)	IC50 (EGFR Δ19/746/750 T790M)	IC50 (EGFR Δ19/746/750)	IC50 (EGFR L858R)	also measured
COc1cc2c(Oc3ccc(N(C(=O)C4(C(N)=O)CC4)c4ccc(F)cc4)cc3F)ccnc2cc1OCCCOCCCOCCC(=O)N[C@H](C(=O)N1C[C@@H](O)C[C@H]1C(=O)NCc1ccc(-c2scnc2C)cc1)C(C)(C)C (single isomer, unassigned) [diastereomer 8]	–	–	–	–	–	–	–	–	–	IC50 (GTL16 cells): 0.156 µM; fold higher concentration than PROTAC 7 required to completely inhibit agonist-driven AKT phosphorylation (AKT phosphorylation): approximately 10 fold
COC1CCN(c2nccc(Nc3cc4c(cn3)nc(COCCN3CCN(c5ccc6c(c5)C(=O)N(C5CCC(=O)NC5=O)C6=O)CC3)n4C(C)C)n2)CC1 (stereo not drawn) [Example 71, 2-(2,6-dioxopiperidin-3-yl)-5-(4-(2-((1-isopropyl-6-((2-(4-methoxypiperidin-1-yl)pyrimidin-4-yl)amino)-1H-imidazo[4,5-c]pyridin-2-yl)methoxy)ethyl)piperazin-1-yl)isoindoline-1,3-dione]	13 µM	C (>80% EGFR protein remaining after 72 hours of incubation with the test compound at a concentration of 300 nM)	0.096 µM	0.12 µM	30 µM	> 30 µM	3.1 µM	> 30 µM	26 µM	IC50 (EGFR Exon20NPG): > 30 µM
(2S,4R)-1-((S,E)-2-(tert-butyl)-16-((4-((4-chloro-3-fluorophenyl)amino)-7-methoxyquinazolin-6-yl)amino)-12-methyl-4,16-dioxo-6,9-dioxa-3,12-diazahexadec-14-enoyl)-4-hydroxy-N-(4-(4-methylthiazol-5-yl)benzyl)pyrrolidine-2-carboxamide [Example 41]	–	B (≤80% and >50% EGFR protein remaining after 72 hours of incubation with the test compound at a concentration between 300 nM and 10 nM)	–	–	–	–	–	–	–	EGFR protein remaining, EGFR-wt [2]: A (≤50% EGFR protein remaining after 72 hours of incubation with the test compound at a concentration between 300 nM and 10 nM); EGFR protein remaining, EGFR-Δ19 (EGFR-Δ19 (HCC827)): A (≤50% EGFR protein remaining after 72 hours of incubation with the test compound at a concentration between 300 nM and 10 nM)
COC1CCN(c2nccc(Nc3cc4c(cn3)nc(COCCOCCOCCOc3ccc5c(c3)C(=O)N(C3CCC(=O)NC3=O)C5=O)n4C(C)C)n2)CC1 (stereo not drawn) [Example 70, 2-(2,6-dioxopiperidin-3-yl)-5-(2-(2-(2-((1-isopropyl-6-((2-(4-methoxypiperidin-1-yl)pyrimidin-4-yl)amino)-1H-imidazo[4,5-c]pyridin-2-yl)methoxy)ethoxy)ethoxy)ethoxy)isoindoline-1,3-dione]	19 µM	C (>80% EGFR protein remaining after 72 hours of incubation with the test compound at a concentration of 300 nM)	16 µM	15 µM	> 30 µM	> 30 µM	11 µM	> 30 µM	> 30 µM	–
COc1cc2ncnc(Nc3ccc(F)c(Cl)c3)c2cc1OCCCCCOCCOCCC(=O)N[C@H](C(=O)N1C[C@H](O)C[C@H]1C(=O)NCc1ccc(-c2scnc2C)cc1)C(C)(C)C [PROTAC 3]	–	–	–	–	–	–	–	–	–	degradation of exon-19 deletion EGFR (immunoblot) (exon-19 deletion EGFR): enabled the degradation; degradation of L858R EGFR (immunoblot) (L858R EGFR): enabled the degradation; EGFR degradation (immunoblot) (WT EGFR): sparing the WT EGFR
COC1CCN(c2nccc(Nc3cc4c(cn3)nc(COCCOCCOCC(=O)N[C@H](C(=O)N3C[C@@H](O)C[C@@H]3C(=O)N[C@@H](C)c3ccc(-c5scnc5C)cc3)C(C)(C)C)n4C(C)C)n2)CC1 [compound 73]	3.4 µM	C (>80% EGFR protein remaining after 72 hours of incubation with the test compound at a concentration of 300 nM)	14 µM	11 µM	20 µM	> 30 µM	6.8 µM	8.1 µM	9.8 µM	–
COc1cc2ncnc(Nc3ccc(F)c(Cl)c3)c2cc1NC(=O)/C=C/CN(C)CCCOCCCOCC(=O)N[C@H](C(=O)N1CC(O)C[C@@H]1C(=O)NCc1ccc(-c2scnc2C)cc1)C(C)(C)C (stereo partly drawn) [compound 48]	–	B (≤80% and >50% EGFR protein remaining after 72 hours of incubation with the test compound at a concentration between 300 nM and 10 nM)	7 µM	3 µM	0.0047 µM	–	–	–	–	IC50 (HER3): 20 µM; EGFR protein remaining, EGFR-wt [2]: B (≤80% and >50% EGFR protein remaining after 72 hours of incubation with the test compound at a concentration between 300 nM and 10 nM); EGFR protein remaining, EGFR-Δ19 (EGFR-Δ19 (HCC827)): A (≤50% EGFR protein remaining after 72 hours of incubation with the test compound at a concentration between 300 nM and 10 nM); EGFR protein remaining, EGFR Exon 20 ASV (EGFR Exon 20 ASV (HeLa*)): C (>80% EGFR protein remaining after 72 hours of incubation with the test compound at a concentration of 300 nM); IC50 (EGFR Exon20NPG): 0.12 µM
